Test results published in ChEMBL document CHEMBL1129830, “A convenient synthesis of pseudoceratidine and three analogs for biological evaluation” (1997).
Converted amounts (≈) assume the structure as drawn.

Experiments:
Type in all cases: functional
Listeria monocytogenes = test: Compound was evaluated for minimal inhibitory concentration against Listeria monocytogenes
Serratia liquefaciens [1] = test: Compound was evaluated for minimal inhibitory concentration against Serratia liquefaciens
Escherichia coli = test: Compound was evaluated for minimal inhibitory concentration against Escherichia coli
Pseudomonas aeruginosa [2] = test: Compound was evaluated for minimal inhibitory concentration against Pseudomonas aeruginosa
Staphylococcus aureus = test: Compound was evaluated for minimal inhibitory concentration against Staphylococcus aureus
Serratia liquefaciens [3] = test: Compound was evaluated for minimal inhibitory concentration against Serratia liquefaciens; Growth delayed by concentrations >= 100 ug/ml
Pseudomonas aeruginosa [4] = test: Compound was evaluated for minimal inhibitory concentration against Pseudomonas aeruginosa; Growth delayed by concentrations >= 50 ug/ml and almost totally inhibited by 500 ug/ml
Serratia liquefaciens [5] = test: Compound was evaluated for minimal inhibitory concentration against Serratia liquefaciens; Growth delayed by concentrations >= 50 ug/ml and almost totally inhibited by 500 ug/ml

MIC (Listeria monocytogenes) [µg/mL]	MIC (Serratia liquefaciens [1]) [µg/mL]	MIC (Escherichia coli) [µg/mL]	MIC (Pseudomonas aeruginosa [2]) [µg/mL]	MIC (Staphylococcus aureus) [µg/mL]	MIC (Serratia liquefaciens [3]) [µg/mL]	MIC (Pseudomonas aeruginosa [4]) [µg/mL]	MIC (Serratia liquefaciens [5]) [µg/mL]	Structure (SMILES)
250 (≈ 511 µM)	> 500	250 (≈ 511 µM)	> 500	100 (≈ 204 µM)	–	–	–	O=C(NCCCCNCCCNC(=O)c1cc(Br)c[nH]1)c1cc(Br)c[nH]1
10 (≈ 15.8 µM)	–	50 (≈ 79 µM)	100 (≈ 158 µM)	10 (≈ 15.8 µM)	> 500	–	–	O=C(NCCCNCCCNC(=O)c1cc(Br)c(Br)[nH]1)c1cc(Br)c(Br)[nH]1
50 (≈ 77.2 µM)	–	100 (≈ 154 µM)	–	50 (≈ 77.2 µM)	–	> 500	> 500	O=C(NCCNCCNCCNC(=O)c1cc(Br)c(Br)[nH]1)c1cc(Br)c(Br)[nH]1
5 (≈ 7.73 µM)	> 500	50 (≈ 77.3 µM)	250 (≈ 386 µM)	5 (≈ 7.73 µM)	–	–	–	O=C(NCCCCNCCCNC(=O)c1cc(Br)c(Br)[nH]1)c1cc(Br)c(Br)[nH]1
